The target in this experiment is T1, Epidermal Growth Factor Receptor (EGFR), extracellular domain (EGFR-ECD) (Homo sapiens, UniProt P00533).
T1 construct: full-length EGFR in DiscoverX PathHunter enzyme-complementation cells, EGF-stimulated
Description: cell-based. More on the design: DiscoverX PathHunter EGFR dimerization/activation assay, chemiluminescence. The procedure:
The inhibition of the EGFR dimerization assay was conducted using the PathHunter kit following the producer instructions and with cetuximab as a positive control. For IC50 determination, the selected compounds were tested at different concentration (range 0.1–100 µM) and the IC50 values were calculated by the four parameters logistic (4-PL) model. Evaluation was based on means from at least four independent experiments. The discovery of orally available small molecules able to impair the EGFR activation targeting the extracellular domain could be of great interest for cancer treatment. To pursue this goal, a suitable high/medium throughput screening method is required. In this respect, a commercially available kit (PathHunter® from DiscoverX©; San Francisco, CA, USA) for the screening of compounds able to prevent EGFR activation (either dimerization or autophosphorylation) has been developed in recent years. This assay measures the chemiluminescent signal produced as a consequence of ligand-induced dimerization/activation of EGFR [16]. Our interest in kinase inhibitors and the readily availability of such kit prompted us to start a campaign for the discovery of small molecules targeting the extracellular domain of EGFR.

The term inhibition denotes the change of the read-out against control, counted positive when it falls. Low values mean a weak effect, high ones a strong effect.

T1 sequence (P00533 25-1210): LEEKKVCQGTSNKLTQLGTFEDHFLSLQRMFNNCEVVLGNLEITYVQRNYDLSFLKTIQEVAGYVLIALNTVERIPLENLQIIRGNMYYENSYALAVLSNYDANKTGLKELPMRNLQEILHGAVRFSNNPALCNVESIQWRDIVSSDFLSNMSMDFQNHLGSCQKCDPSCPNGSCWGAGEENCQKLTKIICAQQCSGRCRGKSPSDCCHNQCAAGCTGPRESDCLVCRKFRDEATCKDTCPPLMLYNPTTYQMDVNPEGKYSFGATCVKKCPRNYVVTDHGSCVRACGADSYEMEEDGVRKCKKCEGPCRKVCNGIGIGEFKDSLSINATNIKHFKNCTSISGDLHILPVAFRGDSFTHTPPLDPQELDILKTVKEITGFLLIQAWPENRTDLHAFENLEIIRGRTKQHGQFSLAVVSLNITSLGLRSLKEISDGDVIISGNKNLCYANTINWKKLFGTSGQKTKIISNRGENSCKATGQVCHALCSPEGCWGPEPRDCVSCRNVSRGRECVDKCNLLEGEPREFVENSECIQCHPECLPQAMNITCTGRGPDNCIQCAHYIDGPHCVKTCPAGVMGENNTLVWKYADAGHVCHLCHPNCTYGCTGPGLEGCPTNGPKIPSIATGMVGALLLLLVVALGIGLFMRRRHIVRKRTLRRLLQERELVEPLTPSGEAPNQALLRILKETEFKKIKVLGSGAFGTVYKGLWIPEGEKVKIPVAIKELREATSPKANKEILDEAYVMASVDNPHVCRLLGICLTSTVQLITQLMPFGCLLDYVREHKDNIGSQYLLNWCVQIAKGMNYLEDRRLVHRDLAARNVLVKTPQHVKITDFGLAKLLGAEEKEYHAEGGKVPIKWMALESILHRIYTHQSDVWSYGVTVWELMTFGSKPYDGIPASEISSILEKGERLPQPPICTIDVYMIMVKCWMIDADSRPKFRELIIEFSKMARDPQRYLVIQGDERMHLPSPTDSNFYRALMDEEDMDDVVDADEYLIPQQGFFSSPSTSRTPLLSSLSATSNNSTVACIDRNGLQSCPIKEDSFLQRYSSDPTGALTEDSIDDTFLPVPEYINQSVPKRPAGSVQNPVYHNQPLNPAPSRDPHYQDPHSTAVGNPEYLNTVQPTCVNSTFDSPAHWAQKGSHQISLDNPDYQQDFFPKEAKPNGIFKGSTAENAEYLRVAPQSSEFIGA

`C=CCOc1cccc2c1C(=O)c1cccc(OCC=C)c1C2=O` [DSF014] had an inhibition at 10 µM of 0% and an inhibition at 50 µM of 0%.

On to `O=C(CN1CCCCC1)Nc1ccc(NC(=O)CN2CCCCC2)c2c1C(=O)c1ccccc1C2=O` [DSF017], for which the inhibition at 10 µM turned out to be 9 ± 2% and at 50 µM the inhibition was 14 ± 1%.

Take `CC(NC(=O)C(NC(=O)OCc1ccccc1)C(C)C)C(=O)OCCCCCNc1ccc(NCCCCCO)c2c1C(=O)c1ccccc1C2=O` (stereo not drawn) [DSF013]: the inhibition at 10 µM stood at 0% and the inhibition at 50 µM is 0%.

Compound `O=C(NCc1ccccc1)c1ccc(-c2ccc(-c3ccccc3)cc2O)cc1` [DSF030] displayed an inhibition at 10 µM of 0% and an inhibition at 50 µM of 0%.

As to `O=C(O)Cc1ccc(S(=O)(=O)Nc2ccccc2)cc1` [DSF081], the inhibition at 10 µM stood at 21 ± 5% and the inhibition at 50 µM is 26 ± 1%.

The compound `CS(=O)(=O)Nc1ccc(NC(=O)c2ccc3c(c2)C(=O)c2c(NCCN4CCNCC4)ccc(NCCN4CCNCC4)c2C3=O)cc1` [DSF010] returned an inhibition at 10 µM of 28 ± 3% and an inhibition at 50 µM of 34 ± 2%.

For `CC(=O)Nc1ccc(C=C2N=C(c3ccc([N+](=O)[O-])cc3O)OC2=O)cc1` [DSF080], at 10 µM the inhibition was 11 ± 5% and the inhibition at 50 µM worked out at 28 ± 3%.

With `COCCOc1ccc2c(C)c(CCC(=O)Nc3ccc(C(=O)O)cc3)c(=O)oc2c1` [DSF048], the inhibition at 10 µM stood at 9 ± 3% and the inhibition at 50 µM is 3 ± 4%.

`ClCc1c2ccccc2c(CCl)c2ccccc12` [DSF003]: the inhibition at 10 µM stood at 35 ± 5% and the inhibition at 50 µM worked out at 50 ± 1%.

Turning to `O=C(CN1CCCCC1)Nc1ccc(NC(=O)CN2CCCCC2)c2c1C(=O)c1c(O)ccc(O)c1C2=O` [DSF019], 10 µM produced 35 ± 5% inhibition and 50 µM produced 33 ± 1% inhibition.

Compound `COc1ccc2c(C)c(CCC(=O)Nc3ccc(C(=O)O)cc3)c(=O)oc2c1C` [DSF044] had an inhibition at 10 µM of 0% and an inhibition at 50 µM of 0%.

Regarding `O=c1oc2nc(Nc3cccc(-c4ccccc4)c3)nc(O)c2cc1-c1cccc(Br)c1` [DSF041], the inhibition at 10 µM is 0% and testing at 50 µM gave an inhibition of 0%.

In turn, `O=[N+]([O-])c1cc(Cl)ccc1S(=O)(=O)Nc1cccc(Cl)c1` [DSF086] yielded an inhibition at 10 µM of 0% and an inhibition at 50 µM of 19 ± 4%.

`COc1ccc([N+](=O)[O-])c(C2=NC(=Cc3ccc(NC(C)=O)cc3)C(=O)O2)c1` [DSF079] registered an inhibition at 10 µM of 3 ± 1% and an inhibition at 50 µM of 41 ± 2%.

As for `c1ccc(-c2cccc(-c3cc(-c4ccccc4)ncn3)c2)cc1` [DSF027], 10 µM produced 0% inhibition and testing at 50 µM gave an inhibition of 0%.

With `CC(=O)Nc1ccc(NC(=O)Cc2c(C)c3cc4c5c(oc4c(C)c3oc2=O)CCCC5)cc1` [DSF052], the inhibition at 10 µM amounted to 41 ± 4% and the inhibition at 50 µM worked out at 49 ± 2%.

On to `O=C(O)Cc1ccc(/N=C2/C(=O)Nc3ccccc32)cc1` [DSF067], for which the inhibition at 10 µM is 42 ± 5% and 50 µM produced 42 ± 1% inhibition.

In turn, `COc1cccc(Nc2nc(O)c3cc(-c4ccccc4)c(=O)oc3n2)c1` [DSF036] returned an inhibition at 10 µM of 0% and an inhibition at 50 µM of 0%.

`Cc1nc(Cl)cc(Nc2ncc(C(=O)O)s2)n1` [DSF060] showed an inhibition at 10 µM of 0% and an inhibition at 50 µM of 0%.

`CCc1cnc(Oc2cccc(NC(=O)NC(=O)c3ccccc3[N+](=O)[O-])c2)nc1` [DSF066]: the inhibition at 10 µM came out at 0% and the inhibition at 50 µM is 0%.

`O=C(O)c1ccc(-c2ccc(-c3ccccc3)cc2O)cc1` [DSF029] returned an inhibition at 10 µM of 1 ± 4% and an inhibition at 50 µM of 0%.

`COc1cccc(Nc2ncc(C(=O)O)c(O)n2)c1` [DSF058] came in with an inhibition at 10 µM of 12 ± 2% and an inhibition at 50 µM of 5 ± 5%.

In the case of `COc1ccc(OC)c(NS(=O)(=O)c2ccc(Cl)cc2[N+](=O)[O-])c1` [DSF088], the inhibition at 10 µM was 0% and testing at 50 µM gave an inhibition of 22 ± 3%.

The compound `O=C(CN1CCOCC1)Nc1ccc(NC(=O)CN2CCOCC2)c2c1C(=O)c1ccccc1C2=O` [DSF018] gave an inhibition at 10 µM of 16 ± 3% and an inhibition at 50 µM of 38 ± 5%.

Turning to `Cc1cccc(C)c1NS(=O)(=O)c1ccc(CC(=O)O)cc1` [DSF083], under “inhibitor, % inhibition @ 10 uM, 10 µM”, the “% inhibition @ 10 uM” value came to 36 ± 4%. Further, the “% inhibition @ 50 uM” value (inhibitor, % inhibition @ 50 uM, 50 µM) is recorded as 49 ± 3%.

On to `Cc1c(CC(=O)Nc2cccc(O)c2)c(=O)oc2c(C)c3oc4c(c3cc12)CCCC4` [DSF050], for which the inhibition at 10 µM stood at 24 ± 4% and the inhibition at 50 µM is 32 ± 2%.

As for `O=C(O)c1ccc(NS(=O)(=O)c2ccc(Cl)cc2[N+](=O)[O-])cc1` [DSF084], the inhibition at 10 µM worked out at 19 ± 2% and the inhibition at 50 µM was determined as 29 ± 3%.

Compound `COCCOc1ccc2c(C)c(CC(=O)Nc3ccc(C(=O)O)cc3)c(=O)oc2c1` [DSF046] yielded an inhibition at 10 µM of 0% and an inhibition at 50 µM of 0%.

`Brc1cccc(-c2cc(-c3ccccc3)ncn2)c1` [DSF028] displayed an inhibition at 10 µM of 0% and an inhibition at 50 µM of 0%.

Compound `CC(=O)Nc1ccc(/C=C2/N=C(c3cccc(C(=O)O)c3)OC2=O)cc1` [DSF071] gave an inhibition at 10 µM of 0% and an inhibition at 50 µM of 0%.

For the compound `CSc1cccc(Nc2ccc3cc(-c4cccs4)c(=O)oc3n2)c1` [DSF032], the inhibition at 10 µM turned out to be 0% and the inhibition at 50 µM stood at 3 ± 5%.

As for `CC(=O)c1cccc2cc3c(C(C)=O)cccc3cc12` [DSF002], the inhibition at 10 µM is 0% and the inhibition at 50 µM is 0%.

The compound `CC(=O)n1cc(/C=C2/N=C(c3ccccc3)OC2=O)c2ccccc21` [DSF077] displayed an inhibition at 10 µM of 7 ± 1% and an inhibition at 50 µM of 39 ± 1%.

`c1ccc2c(CN3CCCCC3)c3ccccc3c(CN3CCCCC3)c2c1` [DSF007] gave an inhibition at 10 µM of 16 ± 4% and an inhibition at 50 µM of 16 ± 4%.

Compound `O=C1Nc2ccccc2/C1=N\c1cccc(C(F)(F)F)c1` [DSF069] gave an inhibition at 10 µM of 27 ± 5% and an inhibition at 50 µM of 56 ± 2%.

`O=C1OC(c2ccccc2)=N/C1=C/c1ccc[nH]1` [DSF075] showed an inhibition at 10 µM of 18 ± 5% and an inhibition at 50 µM of 34 ± 4%.

Compound `COc1ccc2c(C)c(CCC(=O)Nc3ccc(C(=O)O)cc3)c(=O)oc2c1` [DSF045] registered an inhibition at 10 µM of 0% and an inhibition at 50 µM of 0%.

`Cc1oc2c(C)c3oc(=O)c(CC(=O)NCc4ccccc4Cl)c(C)c3cc2c1C` [DSF055] showed an inhibition at 10 µM of 46 ± 1% and an inhibition at 50 µM of 46 ± 5%.

`COc1cccc(Nc2nc(O)c3cc(-c4cc(OC)cc(OC)c4)c(=O)oc3n2)c1` [DSF035] yielded an inhibition at 10 µM of 0% and an inhibition at 50 µM of 0%.

In turn, `COc1ccc2c(C)c(CC(=O)Nc3cccc(C(=O)O)c3)c(=O)oc2c1C` [DSF047] came in with an inhibition at 10 µM of 0% and an inhibition at 50 µM of 0%.

In the case of `O=C1OC(c2ccccc2)=N/C1=C/c1cnc2ccccc2c1` [DSF074], the inhibition at 10 µM was 10 ± 3% and the inhibition at 50 µM was 48 ± 2%.

Take `CN(C)c1ccc(/C=C2/N=C(c3ccccc3)OC2=O)cc1` [DSF073]: the inhibition at 10 µM was 23 ± 1% and at 50 µM the inhibition was 36 ± 3%.
